# Experimental data: ChEMBL document CHEMBL5678807, “A selective jumonji H3K27 demethylase inhibitor modulates the proinflammatory macrophage response” (Nature, 2012)
# Assays:
# Macrophage [1] = assay: Antiinflammatory activity in human primary macrophages assessed as effect on LPS-induced IL12A gene expression at 30 uM measured after 2 hrs by RT-PCR array (reference value: 7097 a.u.); type: functional
# Macrophage [2] = assay: Antiinflammatory activity in human primary macrophages assessed as effect on LPS-induced TNFSF13B gene expression at 30 uM measured after 2 hrs by RT-PCR array (reference value: 28045 a.u.); type: functional
# Macrophage [3] = assay: Antiinflammatory activity in human primary macrophages assessed as effect on LPS-induced TNFSF8 gene expression at 30 uM measured after 2 hrs by RT-PCR array (reference value: 248127 a.u.); type: functional
# Macrophage [4] = assay: Antiinflammatory activity in human primary macrophages assessed as effect on LPS-induced IL18 gene expression at 30 uM measured after 2 hrs by RT-PCR array (reference value: 153374 a.u.); type: functional
# Macrophage [5] = assay: Antiinflammatory activity in human primary macrophages assessed as effect on LPS-induced IFNA4 gene expression at 30 uM measured after 2 hrs by RT-PCR array (reference value: 28 a.u.); type: functional
# Macrophage [6] = assay: Antiinflammatory activity in human primary macrophages assessed as effect on LPS-induced TGFB2 gene expression at 30 uM measured after 2 hrs by RT-PCR array (reference value: 7625 a.u.); type: functional
# Macrophage [7] = assay: Antiinflammatory activity in human primary macrophages assessed as effect on LPS-induced IL1F7 gene expression at 30 uM measured after 2 hrs by RT-PCR array (reference value: 192 a.u.); type: functional
# Macrophage [8] = assay: Antiinflammatory activity in human primary macrophages assessed as effect on LPS-induced IL1F9 gene expression at 30 uM measured after 2 hrs by RT-PCR array (reference value: 5170 a.u.); type: functional
# Macrophage [9] = assay: Antiinflammatory activity in human primary macrophages assessed as effect on LPS-induced GDF11 gene expression at 30 uM measured after 2 hrs by RT-PCR array (reference value: 115 a.u.); type: functional
# Macrophage [10] = assay: Antiinflammatory activity in human primary macrophages assessed as effect on LPS-induced IL15 gene expression at 30 uM measured after 2 hrs by RT-PCR array (reference value: 62425 a.u.); type: functional
# Macrophage [11] = assay: Antiinflammatory activity in human primary macrophages assessed as effect on LPS-induced LTA gene expression at 30 uM measured after 2 hrs by RT-PCR array (reference value: 11322 a.u.); type: functional
# Macrophage [12] = assay: Antiinflammatory activity in human primary macrophages assessed as effect on LPS-induced FIGF gene expression at 30 uM measured after 2 hrs by RT-PCR array (reference value: 60 a.u.); type: functional
# Macrophage [13] = assay: Antiinflammatory activity in human primary macrophages assessed as effect on LPS-induced BMP8B gene expression at 30 uM measured after 2 hrs by RT-PCR array (reference value: 1117 a.u.); type: functional
# Macrophage [14] = assay: Antiinflammatory activity in human primary macrophages assessed as effect on LPS-induced FASLG gene expression at 30 uM measured after 2 hrs by RT-PCR array (reference value: 73 a.u.); type: functional
# Macrophage [15] = assay: Antiinflammatory activity in human primary macrophages assessed as effect on LPS-induced IL1F5 gene expression at 30 uM measured after 2 hrs by RT-PCR array (reference value: 2464 a.u.); type: functional
# Macrophage [16] = assay: Antiinflammatory activity in human primary macrophages assessed as effect on LPS-induced IL6 gene expression at 30 uM measured after 2 hrs by RT-PCR array (reference value: 3511720 a.u.); type: functional
# [17] = target: Potassium voltage-gated channel subfamily A member 5 (Homo sapiens, UniProt P22460); assay: Blockade of human Kv1.5 by electrophysiology assay
# [18] = target: Sodium channel protein type 5 subunit alpha (Homo sapiens, UniProt Q14524); assay: Blockade of human NaV1.5 by electrophysiology assay
# [19] = target: Lysine-specific histone demethylase 1A (Homo sapiens, UniProt O60341); assay: Inhibition of human LSD-1 by luminescence assay
# Histone deacetylase 1 = Histone deacetylase 1 (Homo sapiens, UniProt Q13547); assay: Inhibition of human HDAC1 by FLINT assay
# [20] = target: Lysine-specific demethylase 4D (Homo sapiens, UniProt Q6B0I6); assay: Inhibition of human JmjD2d using H3K27(me3) as substrate preincubated for 10 mins followed by substrate addition and measured after 7 mins in presence of alpha-KG by RapidFire Mass Spectrometry
# Histone deacetylase 5 = Histone deacetylase 5 (Homo sapiens, UniProt Q9UQL6); assay: Inhibition of human HDAC5 by FLINT assay
# Prolyl hydroxylase EGLN3 = Prolyl hydroxylase EGLN3 (Homo sapiens, UniProt Q9H6Z9); assay: Inhibition of human EGLN3 by TR-FRET assay
# [21] = Antagonist activity at human NR1A/NR2B by intracellular Ca fluorescence assay; type: cell-based
# [22] = target: T1, Muscarinic acetylcholine receptor M2 (Homo sapiens, UniProt P08172); assay: Agonist activity at human CHRM2 by intracellular Ca fluorescence assay; type: functional, cell-based
# T1 sequence (P08172 whole entry): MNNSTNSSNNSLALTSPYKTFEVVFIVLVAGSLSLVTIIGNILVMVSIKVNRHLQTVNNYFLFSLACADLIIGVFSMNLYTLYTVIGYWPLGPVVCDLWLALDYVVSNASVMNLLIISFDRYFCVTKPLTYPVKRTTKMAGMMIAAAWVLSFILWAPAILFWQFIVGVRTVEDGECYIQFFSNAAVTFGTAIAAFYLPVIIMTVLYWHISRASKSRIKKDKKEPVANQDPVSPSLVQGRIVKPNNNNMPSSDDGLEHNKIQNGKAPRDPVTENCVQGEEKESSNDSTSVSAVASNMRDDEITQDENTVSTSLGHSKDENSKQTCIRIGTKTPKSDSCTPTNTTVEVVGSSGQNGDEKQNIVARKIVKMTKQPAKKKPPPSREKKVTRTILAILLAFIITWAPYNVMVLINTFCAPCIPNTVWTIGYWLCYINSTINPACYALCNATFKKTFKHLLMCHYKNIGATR
# [23] = target: 5-hydroxytryptamine receptor 1B (Homo sapiens, UniProt P28222); assay: Antagonist activity at human 5-HT1B by SPA; type: functional
# [24] = target: Kappa-type opioid receptor (Homo sapiens, UniProt P41145); assay: Antagonist activity at human OPRK-1 by SPA; type: functional
# PXR (NR1I2) = PXR (NR1I2) (Homo sapiens, UniProt O75469); assay: Agonist activity at human PXR by luciferase reporter assay
# [25] = Antagonist activity at human 5-HT3 by intracellular Ca fluorescence assay; type: cell-based
# [26] = target: 5-hydroxytryptamine receptor 2A (Homo sapiens, UniProt P28223); assay: Antagonist activity at human 5-HT2A by intracellular Ca luminescence assay; type: functional, cell-based
# [27] = target: Protein deacetylase HDAC6 (Homo sapiens, UniProt Q9UBN7); assay: Inhibition of human HDAC6 by FLINT assay
# [28] = target: 3',5'-cyclic-AMP phosphodiesterase 4B (Homo sapiens, UniProt Q07343); assay: Inhibition of human PDE4B by luminescence assay
# [29] = target: Alpha-1B adrenergic receptor (Homo sapiens, UniProt P35368); assay: Antagonist activity at human adrenergic alpha 1B by intracellular Ca luminescence assay; type: functional, cell-based
# Alpha-1B adrenergic receptor, sequence (P35368 whole entry): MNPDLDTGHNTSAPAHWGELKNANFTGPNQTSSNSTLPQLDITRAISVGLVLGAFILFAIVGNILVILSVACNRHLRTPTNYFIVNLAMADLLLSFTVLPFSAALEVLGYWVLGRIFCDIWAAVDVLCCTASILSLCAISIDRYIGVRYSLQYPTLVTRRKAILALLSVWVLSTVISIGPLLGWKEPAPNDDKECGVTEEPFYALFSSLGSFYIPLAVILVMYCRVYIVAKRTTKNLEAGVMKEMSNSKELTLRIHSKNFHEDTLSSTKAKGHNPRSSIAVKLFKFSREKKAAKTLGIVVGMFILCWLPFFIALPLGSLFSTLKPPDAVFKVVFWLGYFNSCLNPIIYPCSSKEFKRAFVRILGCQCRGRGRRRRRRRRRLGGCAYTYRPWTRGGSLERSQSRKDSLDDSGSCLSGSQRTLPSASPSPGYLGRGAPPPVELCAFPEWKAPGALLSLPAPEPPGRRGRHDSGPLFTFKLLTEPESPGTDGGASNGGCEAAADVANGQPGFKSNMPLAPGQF
# Protein deacetylase HDAC6, sequence (Q9UBN7 whole entry): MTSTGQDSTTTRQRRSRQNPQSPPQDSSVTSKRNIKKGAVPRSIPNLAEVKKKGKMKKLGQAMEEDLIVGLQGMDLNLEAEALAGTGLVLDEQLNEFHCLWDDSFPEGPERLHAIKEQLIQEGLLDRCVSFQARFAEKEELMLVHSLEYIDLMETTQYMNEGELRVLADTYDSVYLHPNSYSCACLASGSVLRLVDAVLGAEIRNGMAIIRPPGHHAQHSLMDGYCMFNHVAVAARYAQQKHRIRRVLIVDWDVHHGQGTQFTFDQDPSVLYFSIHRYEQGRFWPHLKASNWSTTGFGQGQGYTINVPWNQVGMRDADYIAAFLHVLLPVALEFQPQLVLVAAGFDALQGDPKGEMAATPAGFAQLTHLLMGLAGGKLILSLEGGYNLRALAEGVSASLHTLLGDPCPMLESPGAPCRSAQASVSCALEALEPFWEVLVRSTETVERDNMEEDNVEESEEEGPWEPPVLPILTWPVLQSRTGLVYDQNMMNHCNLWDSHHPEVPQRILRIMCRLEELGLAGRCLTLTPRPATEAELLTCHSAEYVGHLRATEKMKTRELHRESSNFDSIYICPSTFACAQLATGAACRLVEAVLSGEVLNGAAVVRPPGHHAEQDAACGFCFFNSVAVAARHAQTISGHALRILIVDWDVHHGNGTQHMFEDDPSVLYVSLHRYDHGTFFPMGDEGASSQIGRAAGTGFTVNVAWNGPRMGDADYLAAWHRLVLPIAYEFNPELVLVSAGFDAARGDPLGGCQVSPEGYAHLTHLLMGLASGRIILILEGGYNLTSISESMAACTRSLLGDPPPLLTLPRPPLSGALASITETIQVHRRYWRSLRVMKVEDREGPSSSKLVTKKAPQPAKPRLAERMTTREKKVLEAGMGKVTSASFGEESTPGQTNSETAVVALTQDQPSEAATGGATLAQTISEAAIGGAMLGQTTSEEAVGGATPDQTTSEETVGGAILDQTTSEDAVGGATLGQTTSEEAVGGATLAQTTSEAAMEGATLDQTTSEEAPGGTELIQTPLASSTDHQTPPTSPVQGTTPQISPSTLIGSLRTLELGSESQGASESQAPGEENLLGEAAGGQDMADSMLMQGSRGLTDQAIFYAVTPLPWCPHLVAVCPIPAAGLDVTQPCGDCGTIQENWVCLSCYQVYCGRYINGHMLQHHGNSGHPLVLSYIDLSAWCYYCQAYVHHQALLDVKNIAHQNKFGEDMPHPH
# Kappa-type opioid receptor, sequence (P41145 whole entry): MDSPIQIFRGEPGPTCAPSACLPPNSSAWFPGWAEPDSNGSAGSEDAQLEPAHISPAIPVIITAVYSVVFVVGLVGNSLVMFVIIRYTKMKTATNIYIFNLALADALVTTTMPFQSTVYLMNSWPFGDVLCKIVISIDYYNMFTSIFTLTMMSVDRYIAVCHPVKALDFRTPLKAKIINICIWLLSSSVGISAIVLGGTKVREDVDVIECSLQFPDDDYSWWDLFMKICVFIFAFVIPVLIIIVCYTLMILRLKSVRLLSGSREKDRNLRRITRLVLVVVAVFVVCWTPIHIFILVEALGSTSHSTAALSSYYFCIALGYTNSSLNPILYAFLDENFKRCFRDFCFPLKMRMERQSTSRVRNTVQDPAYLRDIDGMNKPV
# 3',5'-cyclic-AMP phosphodiesterase 4B, sequence (Q07343 whole entry): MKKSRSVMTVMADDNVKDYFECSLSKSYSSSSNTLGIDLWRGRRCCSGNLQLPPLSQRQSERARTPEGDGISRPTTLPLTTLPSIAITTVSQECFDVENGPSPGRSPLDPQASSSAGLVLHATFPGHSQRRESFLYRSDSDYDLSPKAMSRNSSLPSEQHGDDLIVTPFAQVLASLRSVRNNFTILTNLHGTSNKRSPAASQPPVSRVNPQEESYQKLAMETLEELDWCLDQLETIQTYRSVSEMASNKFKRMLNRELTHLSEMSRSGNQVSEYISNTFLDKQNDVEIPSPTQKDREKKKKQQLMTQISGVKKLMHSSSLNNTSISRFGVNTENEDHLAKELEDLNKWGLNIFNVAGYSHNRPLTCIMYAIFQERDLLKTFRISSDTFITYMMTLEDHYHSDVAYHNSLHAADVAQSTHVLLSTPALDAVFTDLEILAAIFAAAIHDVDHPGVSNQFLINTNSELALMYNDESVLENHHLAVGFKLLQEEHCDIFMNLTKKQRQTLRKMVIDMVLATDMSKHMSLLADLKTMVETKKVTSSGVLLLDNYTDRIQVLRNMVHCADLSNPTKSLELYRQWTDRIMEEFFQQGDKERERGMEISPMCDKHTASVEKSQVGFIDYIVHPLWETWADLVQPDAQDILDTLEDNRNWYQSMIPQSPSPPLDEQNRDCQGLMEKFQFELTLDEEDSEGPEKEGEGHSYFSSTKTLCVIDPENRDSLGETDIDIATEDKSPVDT
# 5-hydroxytryptamine receptor 1B, sequence (P28222 whole entry): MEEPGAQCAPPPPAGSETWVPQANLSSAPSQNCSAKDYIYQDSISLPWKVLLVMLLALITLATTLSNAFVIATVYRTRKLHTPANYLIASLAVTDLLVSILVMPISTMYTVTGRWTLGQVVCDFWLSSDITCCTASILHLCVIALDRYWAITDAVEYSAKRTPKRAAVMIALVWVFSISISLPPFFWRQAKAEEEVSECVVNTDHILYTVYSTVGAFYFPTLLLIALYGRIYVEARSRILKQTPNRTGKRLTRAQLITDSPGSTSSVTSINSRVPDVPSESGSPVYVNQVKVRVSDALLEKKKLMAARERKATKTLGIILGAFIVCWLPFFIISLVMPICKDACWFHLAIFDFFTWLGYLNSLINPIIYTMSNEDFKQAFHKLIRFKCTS
# Histone deacetylase 1, sequence (Q13547 whole entry): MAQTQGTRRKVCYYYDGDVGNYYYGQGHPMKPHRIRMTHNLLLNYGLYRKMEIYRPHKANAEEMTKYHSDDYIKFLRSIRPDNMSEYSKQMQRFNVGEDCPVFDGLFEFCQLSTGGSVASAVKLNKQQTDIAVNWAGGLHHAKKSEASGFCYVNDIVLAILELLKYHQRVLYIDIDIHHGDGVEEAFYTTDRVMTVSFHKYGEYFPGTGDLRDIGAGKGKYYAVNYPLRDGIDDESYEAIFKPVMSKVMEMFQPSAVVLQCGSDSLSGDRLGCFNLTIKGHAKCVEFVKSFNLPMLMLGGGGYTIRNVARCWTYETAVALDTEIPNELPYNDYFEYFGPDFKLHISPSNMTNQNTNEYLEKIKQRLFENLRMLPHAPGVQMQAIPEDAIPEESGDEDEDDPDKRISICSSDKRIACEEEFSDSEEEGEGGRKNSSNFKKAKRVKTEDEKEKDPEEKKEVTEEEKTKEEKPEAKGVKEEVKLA
# 5-hydroxytryptamine receptor 2A, sequence (P28223 whole entry): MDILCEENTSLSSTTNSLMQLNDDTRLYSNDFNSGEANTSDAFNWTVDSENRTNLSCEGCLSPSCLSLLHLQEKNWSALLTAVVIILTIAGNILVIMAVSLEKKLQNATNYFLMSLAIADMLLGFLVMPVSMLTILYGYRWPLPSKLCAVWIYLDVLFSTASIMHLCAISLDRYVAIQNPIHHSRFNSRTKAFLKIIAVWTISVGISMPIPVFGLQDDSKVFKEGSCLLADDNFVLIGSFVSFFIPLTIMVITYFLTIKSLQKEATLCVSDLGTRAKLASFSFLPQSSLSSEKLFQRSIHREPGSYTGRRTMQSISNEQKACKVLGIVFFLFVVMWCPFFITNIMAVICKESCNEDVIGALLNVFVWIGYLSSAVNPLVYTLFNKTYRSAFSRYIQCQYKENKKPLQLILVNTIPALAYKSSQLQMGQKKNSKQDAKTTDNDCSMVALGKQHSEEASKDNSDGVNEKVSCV
# Lysine-specific demethylase 4D, sequence (Q6B0I6 whole entry): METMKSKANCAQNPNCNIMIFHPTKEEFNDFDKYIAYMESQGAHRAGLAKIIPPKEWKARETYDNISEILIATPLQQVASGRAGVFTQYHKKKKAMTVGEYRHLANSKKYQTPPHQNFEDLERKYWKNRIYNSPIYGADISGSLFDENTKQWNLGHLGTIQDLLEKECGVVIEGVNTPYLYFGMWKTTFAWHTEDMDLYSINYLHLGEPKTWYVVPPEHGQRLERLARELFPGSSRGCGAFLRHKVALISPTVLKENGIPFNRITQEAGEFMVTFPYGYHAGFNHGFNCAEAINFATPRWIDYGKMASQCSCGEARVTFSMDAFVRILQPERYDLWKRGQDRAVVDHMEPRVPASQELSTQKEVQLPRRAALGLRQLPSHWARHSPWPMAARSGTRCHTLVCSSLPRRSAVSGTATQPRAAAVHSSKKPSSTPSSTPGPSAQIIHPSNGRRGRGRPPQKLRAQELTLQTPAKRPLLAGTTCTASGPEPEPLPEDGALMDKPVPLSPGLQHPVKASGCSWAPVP
# Prolyl hydroxylase EGLN3, sequence (Q9H6Z9 whole entry): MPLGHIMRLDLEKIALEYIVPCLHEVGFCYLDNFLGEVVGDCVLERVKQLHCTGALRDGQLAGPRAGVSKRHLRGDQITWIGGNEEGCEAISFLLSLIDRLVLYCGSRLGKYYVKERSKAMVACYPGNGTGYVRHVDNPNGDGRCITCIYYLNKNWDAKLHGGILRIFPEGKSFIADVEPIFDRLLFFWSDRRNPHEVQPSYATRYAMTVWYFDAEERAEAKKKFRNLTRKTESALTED
Compound,Activity (Macrophage [1]),Activity (Macrophage [2]),Activity (Macrophage [3]),Activity (Macrophage [4]),Activity (Macrophage [5]),Activity (Macrophage [6]),Activity (Macrophage [7]),Activity (Macrophage [8]),Activity (Macrophage [9]),Activity (Macrophage [10]),Activity (Macrophage [11]),Activity (Macrophage [12]),Activity (Macrophage [13]),Activity (Macrophage [14]),Activity (Macrophage [15]),Activity (Macrophage [16]),XC50 [17],XC50 [18],XC50 [19],XC50 (Histone deacetylase 1),further results
CCOC(=O)CCNc1cc(N2CCc3ccccc3CC2)nc(-c2ccccn2)n1,304 a.u.,18715 a.u.,17105 a.u.,74923 a.u.,25 a.u.,3422 a.u.,360 a.u.,476 a.u.,31 a.u.,4562 a.u.,708 a.u.,19 a.u.,820 a.u.,19 a.u.,233 a.u.,242914 a.u.,,,,,
CCOC(=O)CCNc1cc(N2CCc3ccccc3CC2)nc(-c2cccnc2)n1,5021 a.u.,22792 a.u.,115933 a.u.,185197 a.u.,1 a.u.,4816 a.u.,33 a.u.,2413 a.u.,110 a.u.,40115 a.u.,9224 a.u.,87 a.u.,1235 a.u.,45 a.u.,2254 a.u.,1497395 a.u.,,,,,
O=C(O)CCNc1cc(N2CCc3ccccc3CC2)nc(-c2ccccn2)n1,,,,,,,,,,,,,,,,,> 50 µM,79 µM,> 125 µM,> 300 µM,IC50 [20]: 79 µM; XC50 (Histone deacetylase 5): > 300 µM; XC50 (Prolyl hydroxylase EGLN3): > 50 µM; XC50 [21]: > 50 µM; XC50 [22]: > 16 µM; XC50 [23]: > 32 µM; XC50 [24]: 50 µM; XC50 (PXR (NR1I2)): > 50 µM; XC50 [25]: > 4.3 µM; XC50 [26]: > 40 µM; XC50 [27]: > 300 µM; XC50 [28]: 100 µM; XC50 [29]: > 40 µM
O=C(O)CCNc1cc(N2CCc3ccccc3CC2)nc(-c2cccnc2)n1,,,,,,,,,,,,,,,,,> 50 µM,50 µM,> 125 µM,> 300 µM,IC50 [20]: > 100 µM; XC50 (Histone deacetylase 5): > 300 µM; XC50 (Prolyl hydroxylase EGLN3): > 50 µM; XC50 [21]: > 50 µM; XC50 [22]: > 16 µM; XC50 [23]: > 32 µM; XC50 [24]: 50 µM; XC50 (PXR (NR1I2)): 10 µM; XC50 [25]: 25 µM; XC50 [26]: > 40 µM; XC50 [27]: > 300 µM; XC50 [28]: 40 µM; XC50 [29]: > 40 µM
